Test results taken from PubChem BioAssay AID200 (DTP/NCI, 2004).
“And” between values parts separate entries of the source, which are not always exact repeats. Identical values can stand only once. Inconclusive results and toxic doses are left out. *1 amine or outer side, *2 acyl side, *3 side chain or, on linkers, in order; H or OH if unused. Where a SMILES comes first, the peptide text is derived from it. Bridges are numbered along the chain shown (N, C = ends). Roman numbers before positions name the chains, in order. [ ]: non-standard residue; d: D form. The star is where a group is joined. ξ: configuration not given here. Quinaldoyl(3-OH,6-OMe) = COc1ccc2nc(C(=O)*)c(O)cc2c1; X6 = CCC(=O)OC1CC=NN([*:1])C1C(=O)[*:2]; X7 = CC(=O)OC1CC=NN([*:1])C1C(=O)[*:2]; ξNMeVal(3-OH) = CNC(C(=O)O)C(C)(C)O; Sar = CNCC(=O)O

System: B6C3F1 mice, B16 melanoma ip, median survival T/C
Assay: NCI In Vivo Anticancer Drug Screen. Data for tumor model B16 Melanoma (intraperitoneal) in B6C3F1 mice
Details: endpoint: median survival time, higher = longer survival
Procedure, shortened: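 Antitumor effect was judged in mice with transplanted tumors by dividing the treated group's survival measure by that of vehicle controls.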

[1] = dose: 25.0 mg/kg/injection, schedule: Q01DX009 (ip), vehicle: saline with Tween-80
[2] = dose: 50.0 mg/kg/injection, schedule: Q01DX009 (ip), vehicle: saline with Tween-80
[3] = dose: 100.0 mg/kg/injection, schedule: Q01DX009 (ip), vehicle: saline with Tween-80
[4] = dose: 200.0 mg/kg/injection, schedule: Q01DX009 (ip), vehicle: saline with Tween-80
[5] = dose: 1.56 mg/kg/injection, schedule: Q01DX009 (ip), vehicle: saline with Tween-80
[6] = dose: 3.12 mg/kg/injection, schedule: Q01DX009 (ip), vehicle: saline
[7] = dose: 6.25 mg/kg/injection, schedule: Q01DX009 (ip), vehicle: saline
[8] = dose: 0.75 mg/kg/injection, schedule: Q01DX009 (ip), vehicle: Klucel (hydroxypropylcellulose) (HPC)
[9] = dose: 1.5 mg/kg/injection, schedule: Q01DX009 (ip), vehicle: Klucel (hydroxypropylcellulose) (HPC)

CCS(=O)(=O)OCCCCOS(=O)(=O)CC
T/C [1]: 97 % of control
T/C [2]: 100 % of control

CC(C)(C)c1ccc(C(=O)N2CCOC23CCCCC3)cc1
T/C [2]: 91 % of control and 101 % of control
T/C [3]: 98 % of control and 107 % of control
T/C [4]: 94 % of control and 104 % of control
T/C (dose: 400.0 mg/kg/injection, schedule: Q01DX009 (ip), vehicle: saline with Tween-80): 91 % of control and 104 % of control
T/C (dose: 800.0 mg/kg/injection, schedule: Q01DX009 (ip), vehicle: saline with Tween-80): 92 % of control and 98 % of control

Cc1cc(N(CC(C)Br)CC(C)Br)ccc1N=Nc1ccccc1C(=O)O (stereo not given)
T/C (dose: 0.78 mg/kg/injection, schedule: Q01DX009 (ip), vehicle: saline): 105 % of control
T/C [5]: 110 % of control
T/C (dose: 1.56 mg/kg/injection, schedule: Q01DX009 (ip), vehicle: saline): 98 % of control
T/C (dose: 3.12 mg/kg/injection, schedule: Q01DX009 (ip), vehicle: saline with Tween-80): 164 % of control
T/C [6]: 111 % of control
T/C [7]: 108 % of control

CCC(=O)OC1CC=NN2C(=O)C(NC(=O)c3nc4ccc(OC)cc4cc3O)COC(=O)C(C(C)(C)O)N(C)C(=O)CN(C)C(=O)CNC(=O)C3C(OC(C)=O)CC=NN3C(=O)C(NC(=O)c3nc4ccc(OC)cc4cc3O)COC(=O)C(C(C)(C)O)N(C)C(=O)CN(C)C(=O)CNC(=O)C12 (stereo not given) (I: {Quinaldoyl(3-OH,6-OMe)}-S[X6]G[Sar][ξNMeVal(3-OH)] / II: {Quinaldoyl(3-OH,6-OMe)}-S[X7]G[Sar][ξNMeVal(3-OH)]; ester I:1-II:C, I:C-II:1; configuration not given here)
T/C (dose: 4.0 micrograms/kg/injection, schedule: Q01DX009 (ip), vehicle: saline): 98 % of control
T/C (dose: 8.0 micrograms/kg/injection, schedule: Q01DX009 (ip), vehicle: saline): 105 % of control
T/C (dose: 16.0 micrograms/kg/injection, schedule: Q01DX009 (ip), vehicle: saline): 111 % of control

COc1ccc(CC2C(=O)NC(C)C(=O)N(C)C3C(=O)N(C)C(Cc4ccc(O)c(c4)Oc4ccc(cc4)C3O)C(=O)NC(C)C(=O)NC(C)C(=O)N2C)cc1 (stereo not given)
T/C (dose: 0.25 mg/kg/injection, schedule: Q01DX005 (ip), vehicle: saline with Tween-80): 123 % of control
T/C (dose: 0.25 mg/kg/injection, schedule: Q01DX005 (iv), vehicle: saline with Tween-80): 89 % of control and 107 % of control
T/C (dose: 0.5 mg/kg/injection, schedule: Q01DX005 (iv), vehicle: saline with Tween-80): 98 % of control and 100 % of control
T/C (dose: 0.5 mg/kg/injection, schedule: Q01DX009 (ip), vehicle: saline with Tween-80): 174 % of control
T/C (dose: 1.0 mg/kg/injection, schedule: Q01DX005 (iv), vehicle: saline with Tween-80): 98 % of control and 99 % of control
T/C (dose: 2.0 mg/kg/injection, schedule: Q01DX005 (iv), vehicle: saline with Tween-80): 98 % of control and 104 % of control
T/C (dose: 2.0 mg/kg/injection, schedule: Q01DX009 (ip), vehicle: saline with Tween-80): 152 % of control

CN(C)c1ccc(C(=C2C=CC(=[N+](C)C)C=C2)c2ccc(N(C)C)cc2)cc1 (tested in a mixture with another compound)
T/C (dose: 0.62 mg/kg/injection, schedule: Q01DX009 (ip), vehicle: saline): 95 % of control
T/C (dose: 1.25 mg/kg/injection, schedule: Q01DX009 (ip), vehicle: saline): 105 % of control
T/C (dose: 2.5 mg/kg/injection, schedule: Q01DX009 (ip), vehicle: saline): 104 % of control

CCOC(=O)C1=C(C)NC(C)=C(C(=O)OCC)C1C
T/C (dose: 100.0 mg/kg/injection, schedule: Q01DX009 (ip), vehicle: saline): 94 % of control
T/C (dose: 200.0 mg/kg/injection, schedule: Q01DX009 (ip), vehicle: saline): 95 % of control
T/C (dose: 400.0 mg/kg/injection, schedule: Q01DX009 (ip), vehicle: saline): 91 % of control

CCCCOc1ccc(C(=O)SCCCN=C(N)N)cc1
T/C (dose: 3.12 mg/kg/injection, schedule: Q01DX009 (ip), vehicle: suspension in saline): 92 % of control
T/C (dose: 6.25 mg/kg/injection, schedule: Q01DX009 (ip), vehicle: suspension in saline): 97 % of control
T/C (dose: 25.0 mg/kg/injection, schedule: Q01DX009 (ip), vehicle: suspension in saline): 87 % of control

CC(=O)O[C@@H]1CO[C@H]2O[C@H]3[C@@H](C(C=O)=C[C@H](O)[C@@H]4C5=C(C(C)C)CC[C@]5(C)CC[C@@]34C)[C@@]2(O)C1=O
T/C [8]: 89 % of control
T/C [9]: 94 % of control
T/C (dose: 3.0 mg/kg/injection, schedule: Q01DX009 (ip), vehicle: Klucel (hydroxypropylcellulose) (HPC)): 88 % of control

C[C@H](N)C(=O)N[C@@H]1[C@H]2C(=C(O)C[C@@H](O)[C@@H]2O)C(=O)O[C@]1(C)C(Cl)Cl
T/C (dose: 0.18 mg/kg/injection, schedule: Q01DX009 (ip), vehicle: Klucel (hydroxypropylcellulose) (HPC)): 95 % of control
T/C (dose: 0.19 mg/kg/injection, schedule: Q01DX009 (ip), vehicle: Klucel (hydroxypropylcellulose) (HPC)): 100 % of control
T/C (dose: 0.37 mg/kg/injection, schedule: Q01DX009 (ip), vehicle: Klucel (hydroxypropylcellulose) (HPC)): 101 % of control and 107 % of control
T/C (dose: 0.38 mg/kg/injection, schedule: Q01DX009 (ip), vehicle: Klucel (hydroxypropylcellulose) (HPC)): 105 % of control
T/C [8]: 116 % of control and 104 % of control (2×)
T/C [9]: 112 % of control and 113 % of control and 118 % of control

Clc1ccccc1C(Nc1cnccn1)Nc1cnccn1
T/C [1]: 95 % of control and 101 % of control
T/C [2]: 98 % of control and 107 % of control
T/C [3]: 118 % of control and 108 % of control
T/C [4]: 116 % of control

Cc1cc(O)c2c(c1O)C(=O)C13C(=C2O)C(=O)C2C(O)C1C1C(O)C3C(=O)C3=C(O)c4c(O)cc(C)c(O)c4C(=O)C321 (stereo not given)
T/C (dose: 0.19 mg/kg/injection, schedule: Q01DX009 (ip), vehicle: saline with Tween-80): 109 % of control
T/C (dose: 0.2 mg/kg/injection, schedule: Q01DX009 (ip), vehicle: saline with Tween-80): 124 % of control
T/C (dose: 0.39 mg/kg/injection, schedule: Q01DX009 (ip), vehicle: saline with Tween-80): 114 % of control and 106 % of control
T/C (dose: 0.78 mg/kg/injection, schedule: Q01DX009 (ip), vehicle: saline with Tween-80): 117 % of control
T/C [5]: 117 % of control

O=S(=O)(O)O
T/C (dose: 30.0 mg/kg/injection, schedule: Q01DX009 (ip), vehicle: water): 121 % of control and 91 % of control
T/C (dose: 44.0 mg/kg/injection, schedule: Q01DX009 (ip), vehicle: water): 108 % of control and 99 % of control
T/C (dose: 67.0 mg/kg/injection, schedule: Q01DX009 (ip), vehicle: water): 95 % of control and 102 % of control
T/C (dose: 100.0 mg/kg/injection, schedule: Q01DX009 (ip), vehicle: water): 97 % of control and 103 % of control

Cn1c2nc(=O)n(-c3ccccc3)c(=O)c-2nc2c1CCCC2
T/C (dose: 6.25 mg/kg/injection, schedule: Q01DX008 (ip), vehicle: saline with Tween-80): 96 % of control
T/C (dose: 6.25 mg/kg/injection, schedule: Q01DX009 (ip), vehicle: saline with Tween-80): 119 % of control
T/C (dose: 12.5 mg/kg/injection, schedule: Q01DX008 (ip), vehicle: saline with Tween-80): 104 % of control
T/C (dose: 12.5 mg/kg/injection, schedule: Q01DX009 (ip), vehicle: saline with Tween-80): 107 % of control
T/C (dose: 25.0 mg/kg/injection, schedule: Q01DX008 (ip), vehicle: saline with Tween-80): 101 % of control
T/C [1]: 107 % of control
T/C (dose: 50.0 mg/kg/injection, schedule: Q01DX008 (ip), vehicle: saline with Tween-80): 98 % of control
T/C [2]: 101 % of control
T/C [3]: 101 % of control and 102 % of control
T/C [4]: 96 % of control and 97 % of control

C[C@H]1C[C@@H]2[C@H]([C@@H](O)C[C@@]3(C)[C@H]2CC[C@]3(O)C(=O)CO)[C@@]2(C)C=CC(=O)C=C12
T/C (dose: 6.25 mg/kg/injection, schedule: Q01DX009 (ip), vehicle: Klucel (hydroxypropylcellulose) (HPC)): 115 % of control and 101 % of control
T/C (dose: 12.5 mg/kg/injection, schedule: Q01DX009 (ip), vehicle: Klucel (hydroxypropylcellulose) (HPC)): 110 % of control and 101 % of control
T/C (dose: 25.0 mg/kg/injection, schedule: Q01DX009 (ip), vehicle: Klucel (hydroxypropylcellulose) (HPC)): 114 % of control and 107 % of control
T/C (dose: 50.0 mg/kg/injection, schedule: Q01DX009 (ip), vehicle: Klucel (hydroxypropylcellulose) (HPC)): 109 % of control and 111 % of control
T/C (dose: 100.0 mg/kg/injection, schedule: Q01DX009 (ip), vehicle: Klucel (hydroxypropylcellulose) (HPC)): 118 % of control and 119 % of control
T/C (dose: 200.0 mg/kg/injection, schedule: Q01DX009 (ip), vehicle: Klucel (hydroxypropylcellulose) (HPC)): 112 % of control and 121 % of control

COc1cc(C)c2c(c1C=O)Oc1c(c(C)c(O)c3c1C(O)OC3=O)OC2=O (stereo not given)
T/C [6]: 94 % of control
T/C [7]: 100 % of control
T/C (dose: 12.5 mg/kg/injection, schedule: Q01DX009 (ip), vehicle: saline): 105 % of control
T/C (dose: 25.0 mg/kg/injection, schedule: Q01DX009 (ip), vehicle: saline): 98 % of control
T/C (dose: 50.0 mg/kg/injection, schedule: Q01DX009 (ip), vehicle: saline): 98 % of control
